From patent publication US20120165332A1, “SULFONAMIDES AND SULFAMIDES AS ZAP-70 INHIBITORS” (Cellzome Limited, priority 2009, published 2012)

biological target: T1, ZAP-70 (Homo sapiens, UniProt P43403); test: ZAP-70 kinobeads assay; assay type: binding; conditions: cell lysate, affinity matrix with immobilized aminopyrido-pyrimidine ligand 24, dot blot detection
T1 construct: endogenous in cells; host or cells: cell lysate
T1 sequence (P43403 1-619): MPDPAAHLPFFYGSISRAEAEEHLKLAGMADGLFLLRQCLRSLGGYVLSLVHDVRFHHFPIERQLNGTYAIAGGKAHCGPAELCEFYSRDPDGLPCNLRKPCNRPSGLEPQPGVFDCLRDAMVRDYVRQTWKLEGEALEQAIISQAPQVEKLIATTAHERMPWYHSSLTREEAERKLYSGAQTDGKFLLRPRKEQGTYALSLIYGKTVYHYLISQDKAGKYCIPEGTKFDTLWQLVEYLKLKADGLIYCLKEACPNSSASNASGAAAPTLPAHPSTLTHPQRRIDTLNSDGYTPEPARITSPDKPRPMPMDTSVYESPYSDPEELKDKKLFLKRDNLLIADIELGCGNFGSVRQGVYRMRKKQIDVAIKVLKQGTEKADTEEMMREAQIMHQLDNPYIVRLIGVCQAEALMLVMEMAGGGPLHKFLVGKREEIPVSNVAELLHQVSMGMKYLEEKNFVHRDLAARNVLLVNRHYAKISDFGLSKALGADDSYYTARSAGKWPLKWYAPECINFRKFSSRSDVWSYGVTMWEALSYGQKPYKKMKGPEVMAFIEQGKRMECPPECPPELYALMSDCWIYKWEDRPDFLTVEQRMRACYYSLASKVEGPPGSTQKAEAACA
Description: The compounds of the present invention as described in the previous examples can be tested in the ZAP-70 kinobeads assay as described (EP-A 1862802 and WO-A 2007/137867). Briefly, test compounds (at various concentrations) and the affinity matrix with the immobilized aminopyrido-pyrimidine ligand 24 are added to cell lysate aliquots and allowed to bind to the proteins in the lysate sample. After the incubation time the beads with captured proteins are separated from the lysate. Bound proteins are then eluted and the presence ZAP-70 is detected and quantified using a specific antibody in a dot blot procedure and the Odyssey infrared detection system.

| IC50 | SMILES |
| --- | --- |
| ≤ 100 nM | COc1ccc(Nc2nc(Nc3cc(OC)c(OC)c(OC)c3)ncc2Cl)c(N(CC#N)S(C)(=O)=O)c1 [Example 6, N-(2-(5-chloro-2-(3,4,5-trimethoxyphenylamino)pyrimidin-4-ylamino)-5-methoxyphenyl)-N-(cyanomethyl)methanesulfonamide] |
| 100 to 1000 nM | COc1ccc(Nc2nc(Nc3cc(F)c(OC)cc3OC)ncc2Cl)c(N(CCN)S(C)(=O)=O)c1 [Example 10, N-(2-aminoethyl)-N-(2-(5-chloro-2-(5-fluoro-2,4-dimethoxyphenylamino)pyrimidin-4-ylamino)-5-methoxyphenyl)methanesulfonamide] |
| ≤ 100 nM | COc1ccc(Nc2nc(Nc3cc(OC)c(OC)c(OC)c3)ncc2Cl)c(N(CCCNC=O)S(C)(=O)=O)c1 [Example 12, N-(3-(N-(2-(5-chloro-2-(3,4,5-trimethoxyphenylamino)pyrimidin-4-ylamino)-5-methoxyphenyl)methylsulfonamido)propyl)formamide] |
